Experimental data reported in US20220409548A1, “AMORPHOUS SOLID DISPERSION OF PYRAZOLE-AMIDE COMPOUND” (JAPAN TOBACCO INC., priority 2019, published 2022).

How the values were obtained:
[1] = Precipitation test in acidic media (pH 1.2); type: physicochemical; conditions: ethanol solution 100 mg/mL into JP 1st fluid pH 1.2, 450 mL; addition of copolyvidone, methylcellulose or hypromellose (0.01 g) vs HPMCAS, polyvinyl alcohol or no polymer; FIG. 3
Procedure: The dissolution test was performed using a dissolution tester (trade name: NTR-VS6P, manufactured by Toyama Sangyo Co., Ltd.) that conforms to the Japanese Pharmacopoeia Dissolution Test Method 2 (Paddle Method), at paddle rotating speed 75 rpm, test media amount 450 mL. An amount equivalent to 100 mg of the compound of the formula [I] was added to the test media, and the dissolved amount of the compound of the formula [I] was measured at each sampling point with a spectrophotometer (UV-1600, manufactured by Shimadzu Corporation).
The precipitation behavior of the compound of the formula [I], dissolved in ethanol (concentration: 100 mg/mL), in the following 6 types of test medium was evaluated by the same test method as in Experimental Example 1. […]

[2] = tested on: pyruvate dehydrogenase kinase (PDHK); conditions: described in patent document 1 (WO 2014/142290); cited from earlier work

CC(C)(O)CCOc1cc(-c2cnn(C(C)(C)C(N)=O)c2)c2c(c1)[C@@](O)(C(F)(F)F)c1ccccc1-2 [compound of the formula [I], 2-{4-[(9R)-9-hydroxy-2-(3-hydroxy-3-methylbutyloxy)-9-(trifluoromethyl)-9H-fluoren-4-yl]-1H-pyrazol-1-yl}-2-methylpropanamide]
precipitation behavior in pH 1.2 test media [1]: significantly suppressed the precipitation
pyruvate dehydrogenase kinase (PDHK) inhibitory activity [2]: have a pyruvate dehydrogenase kinase (PDHK) inhibitory activity
